Laboratory results taken from the supplement of paper PMC10307832.

Columns and labels:
Experiment in all cases: relative viability (nuclei count vs DMSO), 5 days (fraction); higher = more cells survive
BAY61-3606 + Tozasertib = compound: COC1=C(C=C(C=C1)C2=CC3=NC=CN3C(=N2)NC4=C(C=CC=N4)C(=O)N)OC [BAY61-3606] + Cc1cc(Nc2cc(N3CCN(C)CC3)nc(Sc3ccc(NC(=O)C4CC4)cc3)n2)n[nH]1 [Tozasertib] (partner 0.1 µM)
Method in brief: (§1)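 One day after seeding in 1536-well plates, lung cancer cell lines were dosed by pin tool. Dosing was either single-drug or a fixed anchor-drug dose plus five library-drug doses (not always all listed) in √10 steps. After 5 days, nuclei were stained in one fix-and-stain step and counted on 4× images, and relative viability is the nuclei count of treated wells over that of vehicle wells, given as the median of duplicate plates.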

Doxorubicin + Crizotinib = compound: COc1cccc2c1C(=O)c1c(O)c3c(c(O)c1C2=O)C[C@@](O)(C(=O)CO)C[C@@H]3O[C@H]1C[C@H](N)[C@H](O)[C@H](C)O1 [Doxorubicin] + C[C@@H](Oc1cc(-c2cnn(C3CCNCC3)c2)cnc1N)c1c(Cl)ccc(F)c1Cl [Crizotinib] (partner 1 µM)
Method in brief: as §1

Doxorubicin + Navitoclax = compound: COc1cccc2c1C(=O)c1c(O)c3c(c(O)c1C2=O)C[C@@](O)(C(=O)CO)C[C@@H]3O[C@H]1C[C@H](N)[C@H](O)[C@H](C)O1 [Doxorubicin] + CC1(C)CCC(c2ccc(Cl)cc2)=C(CN2CCN(c3ccc(C(=O)NS(=O)(=O)c4ccc(N[C@H](CCN5CCOCC5)CSc5ccccc5)c(S(=O)(=O)C(F)(F)F)c4)cc3)CC2)C1 [Navitoclax] (partner 0.5 µM)
Method in brief: as §1

Doxorubicin + Pemetrexed = compound: COc1cccc2c1C(=O)c1c(O)c3c(c(O)c1C2=O)C[C@@](O)(C(=O)CO)C[C@@H]3O[C@H]1C[C@H](N)[C@H](O)[C@H](C)O1 [Doxorubicin] + Nc1nc2[nH]cc(CCc3ccc(C(=O)N[C@@H](CCC(=O)O)C(=O)O)cc3)c2c(=O)[nH]1 [Pemetrexed] (partner 0.2 µM)
Method in brief: as §1

| Cell Line | relative viability (BAY61-3606 + Tozasertib; first compound 0.02 µM) | relative viability (BAY61-3606 + Tozasertib; first compound 0.06325 µM) | relative viability (BAY61-3606 + Tozasertib; first compound 0.2 µM) | relative viability (BAY61-3606 + Tozasertib; first compound 0.6325 µM) | relative viability (BAY61-3606 + Tozasertib; first compound 2 µM) | relative viability (Doxorubicin + Crizotinib; first compound 0.001 µM) | relative viability (Doxorubicin + Crizotinib; first compound 0.003162 µM) | relative viability (Doxorubicin + Crizotinib; first compound 0.01 µM) | relative viability (Doxorubicin + Crizotinib; first compound 0.03162 µM) | relative viability (Doxorubicin + Crizotinib; first compound 0.1 µM) | relative viability (Doxorubicin + Navitoclax; first compound 0.001 µM) | relative viability (Doxorubicin + Navitoclax; first compound 0.003162 µM) | relative viability (Doxorubicin + Navitoclax; first compound 0.01 µM) | relative viability (Doxorubicin + Navitoclax; first compound 0.03162 µM) | relative viability (Doxorubicin + Navitoclax; first compound 0.1 µM) | relative viability (Doxorubicin + Pemetrexed; first compound 0.001 µM) | relative viability (Doxorubicin + Pemetrexed; first compound 0.003162 µM) | relative viability (Doxorubicin + Pemetrexed; first compound 0.01 µM) | relative viability (Doxorubicin + Pemetrexed; first compound 0.03162 µM) | relative viability (Doxorubicin + Pemetrexed; first compound 0.1 µM) |
| --- | --- | --- | --- | --- | --- | --- | --- | --- | --- | --- | --- | --- | --- | --- | --- | --- | --- | --- | --- | --- |
| LK-2 | 0.19 | 0.163 | 0.193 | 0.158 | 0.21 | 0.29 | 0.223 | 0.235 | 0.227 | 0.272 | 0.894 | 0.875 | 0.889 | 0.638 | 0.804 | 0.225 | 0.255 | 0.228 | 0.26 | 0.238 |
| NCI-H1563 |  |  |  |  |  | 0.826 | 0.728 | 0.584 | 0.522 | 0.447 |  |  |  |  |  | 0.734 | 0.825 | 0.838 | 0.777 | 0.536 |
| COR-L23 | 0.203 | 0.133 | 0.148 | 0.14 | 0.117 | 0.764 | 0.66 | 0.562 | 0.252 | 0.0977 | 1.03 | 1.12 | 0.82 | 0.63 | 0.169 | 0.202 | 0.212 | 0.203 | 0.2 | 0.186 |
| ABC-1 | 0.2 | 0.181 | 0.163 | 0.16 | 0.208 | 1.09 | 1.28 | 0.804 | 0.294 | 0.209 |  |  |  |  |  |  |  |  |  |  |
| NCI-H522 | 0.562 | 0.517 | 0.527 | 0.574 | 0.5 |  |  |  |  |  |  |  |  |  |  | 0.949 | 1.02 | 1.16 | 0.844 | 0.878 |
| SW 1573 | 0.168 | 0.174 | 0.154 | 0.197 | 0.146 | 0.905 | 0.794 | 0.85 | 0.687 | 0.69 | 0.849 | 1.09 | 1.04 | 0.526 | 0.196 | 0.869 | 0.807 | 0.263 | 0.144 | 0.105 |
| SW 900 | 0.576 | 0.582 | 0.372 | 0.294 | 0.237 |  |  |  |  |  |  |  |  |  |  |  | 0.461 | 0.465 | 0.498 | 0.412 |
| A549 |  |  |  |  |  | 0.774 | 0.634 | 0.419 | 0.0759 | 0.0405 | 1.15 | 0.977 | 0.468 | 0.0557 | 0.0324 |  |  |  |  |  |
| A-427 | 0.222 | 0.183 | 0.171 | 0.222 | 0.187 | 0.855 | 1.02 | 0.897 | 0.978 | 0.88 | 1 | 0.978 | 0.966 | 0.983 | 1.05 | 1.08 | 1.06 | 0.929 | 0.746 | 0.429 |
| NCI-H1703 |  |  |  |  |  | 0.578 | 0.789 | 0.365 | 0.179 | 0.0887 | 0.735 | 0.902 | 0.386 | 0.195 | 0.14 |  |  |  |  |  |
| LCLC-103H | 0.459 | 0.335 | 0.484 | 0.352 | 0.213 | 1.07 | 1.06 | 1.03 | 1.06 | 1.19 |  |  |  |  |  | 0.499 | 0.484 | 0.458 | 0.467 | 0.466 |
| Calu-6 |  |  |  |  |  | 0.776 | 0.708 | 0.52 | 0.229 | 0.171 | 0.835 | 0.91 | 0.581 | 0.24 | 0.113 |  |  |  |  |  |
| NCI-H1648 | 0.376 | 0.356 | 0.448 | 0.408 | 0.231 |  |  |  |  |  |  |  |  |  |  | 0.756 | 0.746 | 0.724 | 0.695 | 0.632 |
| EBC-1 |  |  |  |  |  | 0.222 | 0.189 | 0.179 | 0.177 | 0.164 | 0.488 | 0.524 | 0.377 | 0.171 | 0.123 |  |  |  |  |  |
| NCI-H727 | 0.799 | 0.593 | 0.521 | 0.656 | 0.442 | 0.817 | 1.01 | 0.787 | 0.677 | 0.578 | 0.402 | 0.474 | 0.492 | 0.462 | 0.455 |  |  |  |  |  |
| NCI-H2342 | 0.574 | 0.466 | 0.47 | 0.668 | 0.525 |  |  |  |  |  |  |  |  |  |  | 0.802 | 0.843 | 0.761 | 0.711 | 0.818 |
| NCI-H1793 | 0.313 | 0.227 |  | 0.203 | 0.222 |  |  |  |  |  |  | 0.448 | 0.393 | 0.478 | 0.547 |  | 1.11 | 0.904 | 0.617 | 0.784 |
| NCI-H358 | 0.108 | 0.111 | 0.107 | 0.103 | 0.0821 | 0.728 | 0.543 | 0.441 | 0.202 | 0.0991 |  |  |  |  |  | 0.152 | 0.183 | 0.179 | 0.156 | 0.169 |
| NCI-H650 | 0.795 | 0.263 | 0.648 | 0.455 | 0.226 | 0.878 | 0.657 | 0.562 | 0.568 | 0.534 |  |  |  |  |  | 1.05 | 0.846 | 0.926 | 0.867 | 0.784 |
| NCI-H1299 |  |  |  |  |  | 0.952 | 0.981 | 0.939 | 0.874 | 0.49 | 1.05 | 1.06 | 1.08 | 1.06 | 0.947 |  |  |  |  |  |
| IA-LM |  |  |  |  |  | 0.604 | 0.914 | 0.564 | 0.376 | 0.113 | 0.616 | 0.821 | 0.6 | 0.278 | 0.0497 |  |  |  |  |  |
| NCI-H661 | 0.357 | 0.358 | 0.37 | 0.378 | 0.362 | 0.971 | 1.21 | 1.08 | 1.02 | 0.993 |  |  |  |  |  | 0.894 | 1.02 | 0.891 | 0.754 | 0.643 |
| NCI-H1792 |  |  |  |  |  | 0.975 | 0.974 | 1.01 | 0.924 | 0.943 | 0.634 | 0.556 | 0.62 | 0.582 | 0.597 | 0.43 | 0.889 | 0.809 | 0.691 | 0.466 |
